Here are results for two molecules from patent publication US20210000988A1, “PHARMACEUTICAL COMPOSITION CONTAINING 211AT-LABELED AMINO ACID DERIVATIVE, AND METHOD FOR PRODUCING SAID PHARMACEUTICAL COMPOSITION” (OSAKA UNIVERSITY, priority 2018, published 2021).

Data set [1] is described as follows: In vitro stability by thin-layer chromatography (TLC), with and without sodium ascorbate. The data set is classed as physicochemical. The text has this:
The stability of ^211At-AAMT synthesized in Example 1 was compared in the presence and absence of sodium ascorbate using thin-layer chromatography (TLC).

A short description of data set [2]: In vivo stability: TLC of blood and urine after intravenous injection in normal rats. To be noted: ascorbic acid 1% final concentration, after one hour. The protocol: ^211At-AAMT to which ascorbic acid was added at a final concentration of 1% was intravenously injected in normal rats, and, after one hour, blood and urine were collected and analyzed by thin-layer chromatography (TLC). As a thin layer plate, silica gel G60F254 (Merck KGaA) was used, and, as a development solvent, a mixture of butanol:water:acetic acid (4:1:1) was used (Nacalai Tesque, Inc.). The thin layer plate after development was analyzed by using a bioimaging analysis apparatus (Typhoon 7000, GE Healthcare) (FIG. 2). […] That is, it was shown that ^211At-AAMT to which ascorbic acid was added could stably exist in the living body without being metabolized or degraded.

The nature of data set [3]: Effect of ascorbic acid on biodistribution in normal mice (organ radioactivity, gamma counter). The data set is classed as in vivo, ddY mice. To be noted: intravenous, one hour, 1% ascorbic acid addition group compared with ascorbic acid free group. From the text: Next, an effect of ascorbic acid on biodistribution of ^211At-AAMT in the mouse body was compared. ddY mice (male, 5 weeks old) purchased from Japan SLC, Inc. were used after being acclimated for one week (6 weeks old at the time of experiment). ^211At-AAMT with 1% ascorbic acid or without ascorbic acid was intravenously injected in normal mice (N=3), and the mice were dissected after one hour. The organs were all put in polyethylene bags with zipper (A-4, 0.04 mm, SEISANNIPPONSHA Ltd.), and radioactivity of the organs was measured using Wizard^2 gamma counter (PerkinElmer).

Data set [4] deals with human pancreatic cancer cell line (PANC-1). In words: Cellular uptake / accumulation in cancer cells (radiation dose remaining in the cells). Format: cell-based. The protocol: A human pancreatic cancer cell line (PANC-1) was treated with ^211At-AAMT and cultured for a predetermined time. Then, the cells were washed to remove unincorporated ^211At-AAMT. The cellular uptake of ^211At-AAMT was measured from the radiation dose remaining in the cells.
Further, an effect of ascorbic acid on the cellular accumulation of ^211At-AAMT was also examined. The measurement result of the radiation dose in the human pancreatic cancer cell line in the absence and presence of ascorbic acid is shown in FIG. 5.

The test system is the same in data set [5]. As to the kind of experiment: Cell-killing effect (cell survival rate). Format: cell-based. To be noted: PANC-1 cells. From the text: 4. Examination of cell-killing effect of ^211At-AAMT A cell survival rate of the human pancreatic cancer cell line (PANC-1) administered with ^211At-AAMT under the same conditions as in Example 3 is shown in FIG. 6. […] On the other hand, the cellular uptake of ^211At-AAMT was reduced in the presence of the inhibitor BCH or methyltyrosine.

Data set [6] shares this test system. As to the kind of experiment: Administration to cancer-bearing mouse (tumor size and body weight). The data set is classed as in vivo. To be noted: PANC-1 cancer-bearing mouse, intravenous, 0.6 MBq per mouse, 7 days after administration. From the text: A cancer-bearing mouse created by using the human pancreatic cancer cell line (PANC-1) was intravenously administered with ^211At-AAMT at a dose of 0.6 MBq per mouse. A change in the tumor size caused by the administration is shown in FIG. 8(A), while a change in the body weight of the cancer-bearing mouse is shown in FIG. 8(B).

A short description of data set [7]: Image analysis of in vivo localization in the normal rat using a gamma camera.
Data set [8] concerns human pancreas cell line PANC-1. As to the kind of experiment: SPECT imaging in pancreatic cancer (PANC-1) transplanted mice. The data set is classed as in vivo, Balb/c-nu/nu mice. To be noted: PANC-1 transplanted mice (two animals), intravenous, 1 MBq, with 1% ascorbic acid, after 10 minutes. The protocol: Balb/c-nu/nu mice (female, 5 weeks old) purchased from Japan SLC, Inc. were acclimated in a breeding space for one week. A human pancreas cell line PANC-1 (RIKEN cell bank), which was maintained in an RPMI 1640 medium (Sigma-Aldrich) supplemented with 10% fetal bovine serum (Gibco) and 1% antibiotics (100×, FUJIFILM Wako Pure Chemical Corp.), was adjusted to a concentration of 5×10^6 cells/100 μL. Subsequently, the cells were mixed with Matrigel (Growth Factor Reduced, BD) in a 1:1 ratio, and the mixture was transplanted to a subcutaneous region of the hinder back of a mouse using a syringe (FN syringe 27G, Terumo Corp.). Subsequently, after one-month follow-up observation, the mouse having a sufficiently large tumor size was used in the experiment. These pancreatic cancer transplanted mice (animal 1: 25.5 g, animal 2: 30.2 g) were intravenously injected with ^211At-AAMT (with 1% ascorbic acid, at a dose of 1 MBq each), and SPECT imaging was performed after 10 minutes. Imaging was performed using a gamma camera E-Cam (Siemens) (imaging time: 10 minutes, collimator: low energy all purpose, pixel size: 1.2 mm×1.2 mm, matrix: 256×256, zoom: 2-fold, energy window: 79±20%).

Data set [9] can be described thus: SPECT imaging in normal rats. Format: in vivo, rats (Wister). To be noted: intravenous, 1 MBq, without ascorbic acid, 20 minutes to 1 hour. The protocol:
Normal rats (Wister, 3 months old, male, 3 animals, body weight of 289.8±5.5 g) were intravenously injected with ^211At-AAMT (without ascorbic acid, 1 MBq), and SPECT imaging was performed after from 20 minutes to 1 hour. Imaging was performed using a gamma camera E-Cam (Siemens) (imaging time: 20 minutes, collimator: low energy all purpose, pixel size: 2.4 mm×2.4 mm×2.4 mm (SPECT), matrix: 128×128).

In another data set the test system is Melanoma cells B16F10. As to the kind of experiment: Treatment effect on melanoma metastasis to lung (nodule count and body weight). The data set is classed as in vivo, C57BL/6 mice. To be noted: B16F10 transplanted mice, intravenous. The text has this: C57BL/6 mice (female, 5 weeks old) purchased from Japan SLC, Inc. were used in the experiment after being acclimated in a breeding space for one week. Melanoma cells B16F10 (a high lung-metastatic cell line cloned from B16, RIKEN cell bank) were maintained in a D-MEM medium (high glucose, Sigma-Aldrich) supplemented with 10% fetal bovine serum (Gibco) and 1% antibiotics (100×, FUJIFILM Wako Pure Chemical Corp.). These cells in an amount of 2×10^5 cells were intravenously transplanted in each mouse. On the following day, the mice (N=5) was intravenously injected with ^211At-AAMT (with 1% ascorbic acid) at a dose of 0.0 MBq (control group), 0.1 MBq, or 1 MBq. Fourteen days later, the mice were dissected, and the number of nodules spread to the lung was visually counted. The results of the number of the nodules and a change in the body weight thus obtained were shown in FIG. 11 and FIG. 12, respectively.

Consider `CC(N)(Cc1ccc(O)c([211At])c1)C(=O)O` (centres unmarked) [^211At-AAMT], for which the “time in which almost all of the compound was degraded” value in data set [1] (in the absence of sodium ascorbate) was “about 40 minutes”. The stability over time result in data set [1] (in the presence of sodium ascorbate) is “could stably exist even after the lapse of seven or more hours”. For the same molecule, the “radioactive species detected in blood and urine” value in [2] is “only ^211At-AAMT was detected in both the blood and the urine, but free ^211At was not observed”. Also, the “accumulation in the stomach and the kidney” value in data set [3] is on record as “significantly reduced”. Besides, the “time at which uptake reached the maximum value” in data set [4] (PANC-1 cells) is given as “about 10 minutes”. For the same molecule, the “increase of cellular uptake in the cancer cells by addition of ascorbic acid” value in data set [4] (PANC-1 cells, with versus without ascorbic acid) is listed as “increased about four times”. In addition, the “accumulation in PANC-1 on addition of ascorbic acid” value in data set [4] (ascorbic acid 0.1% versus absence) is “significantly increased”. Further, in data set [5] (same conditions as Example 3), the “cell-killing effect (cell survival rate)” value is reported as “nearly all of the cancer cells could be killed”. For the same molecule, the “cancer cell-killing activity on addition of ascorbic acid” value in data set [5] (with versus without ascorbic acid) was “increased”. In [6], the “change in body weight” value is given as “a substantial reduction of the body weight was not observed” and the “change in tumor size” value was “a regression effect of the tumor was obtained”. Further, in data set [7], the excretion result is listed as “quick excretion of ^211At-AAMT by the kidney”; the “in vivo localization of radioactivity” value is “accumulation of the radioactivity was observed in the kidney and its surrounding organs”. Also, in [8], the “visualization of the thyroid (SPECT)” value is recorded as “the thyroid was not visualized” and the “visualization of the tumor (SPECT)” value is reported as “the tumors were clearly visualized in both cases”. The “accumulation of radioactivity (SPECT)” value in [9] was “accumulation of the radioactivity was observed in the thyroid and the stomach in all animals”. For the same molecule, the body weight change result in the data set on Melanoma cells B16F10 (0.1 MBq or 1 MBq with 1% ascorbic acid versus control group) is reported as “no difference in the body weight change”. The “number of melanoma nodules in the lung” value with Melanoma cells B16F10 (0.1 MBq or 1 MBq with 1% ascorbic acid versus control, fourteen days later) is recorded as “decreased more in the group with more doses”.

For the molecule `NC1(C(=O)O)CC2CCC1C2` (centres unmarked) [BCH, 2-aminobicyclo[2.2.1]heptane-2-carboxylic acid, reference compound], the “uptake of ^211At-AAMT under competition with the inhibitor” value in data set [4] (PANC-1 cells, competitor added (Comparative example)) was “reduced”. Also, the “cell survival rate with ^211At-AAMT in the presence of the inhibitor” value in data set [5] (competitor present) was “a significant reduction in the cell survival rate was not observed”.
